According to patent US9920387B2, “Strain of marine oil-degrading bacteria, compounds obtained by fermentation and their applications” (THIRD INSTITUTE OF OCEANOGRAPHY,STATE OCEANIC ADMINISTRATION, priority 2014, dated 2018):
*1 amine or outer side, *2 acyl side, *3 side chain or, on linkers, in order; H or OH if unused. Where a SMILES comes first, the peptide text is derived from it. Bridges are numbered along the chain shown (N, C = ends). [ ]: non-standard residue; d: D form. X1 = CC(C)CCCCCCCCC[C@H](CC(=O)[*:1])O[*:2]

How the values were obtained:
[1] = Liquid surface tension (automatic interfacial tensiometer); format: physicochemical
Experimental: Test method of liquid surface tension: Inoculate the Alcanivorax dieselolei T6-6 single bacterium into MSM medium on clean workbench (with 2% n-hexadecane as the sole carbon source), and culture it in constant temperature air bath shaker incubator (28° C., 200 rpm/min) until thalli obviously grow (about 3 to 5 days), during which take out 10 ml fermentation liquid every 24 hours, and measure its surface tension values using automatic interfacial tensiometer (Manufacturer: Chengde Precision Testing Machine Co., Ltd; Model: JZ-200-a automatic interface tensiometer). […] (For refrigeration of supernatant and hydrophobic layer stratified after centrifugation, the surface tension should be measured when it gets to the room temperature. Thus, the result is comparability and credibility). When measuring liquid surface tension, pour 10 ml fermentation liquid of A. dieselolei T6-6 at temperature of 25° C. into a weighing cup, place the weighing cup in the center of the tray, press “▴” to make the platinum ring deep into 5 mm to 7 mm in the liquid, press “●” to stop; if the peak needs to be kept, firstly press “peak” button, and then press “▾”, the display value will increase gradually, and finally stay at the maximum; this maximum value is the actually measured value of surface tension of liquid, and then press “●” to stop, after the maximum value is recorded, press “reset” button. […]

[2] = Oil expansion activity at different temperatures and pH values; format: physicochemical
Experimental: Determination method of biosurfactant oil expansion activity: Take a culture dish, add water, and add 0.1 ml hexadecane on the water surface to form oil film. Add the fermentation liquid from the shake flask to the center of oil film to make the central film squeezed to form a circle, the diameter of which positively correlates to the concentration and activity of the biosurfactant. Strains with cycle diameter more than 3 cm are retained for further study. Set pH value in the range of 2 to 10 to determine effect of pH on lysine ester produced by the strain Alcanivorax dieselolei T6-6. Oil expansion diameter varies from 3.6 to 3.9 for lysine ester produced by the strain Alcanivorax dieselolei T6-6 with small fluctuation. It has a good acid and base resistance, and the activity is the highest at pH=8. Considering the structure, it can be inferred that this material is alkaline. And also, when adding a few drops of ammonia expansion on the running TLC plate, the substance will expand more fully, which also proves that it is alkaline.
Treat the pure lysine ester produced by strain Alcanivorax dieselolei T6-6 at temperatures of 20° C., 40° C., 60° C., 80° C. and 100° C. for one hour, and then determine its activity. […] Good thermal stability makes it possible for the substance to be used in high temperature fields.

Pestalotiopsistheae = assay: Antibacterial activity, filter paper method; format: cell-based; details: 28° C.
Excerpt: (§1) Antibacterial activity test method: use filter paper method to detect antibacterial activity of biosurfactant produced by fermentation of strain Alcanivorax dieselolei T6-6. The indicator bacteria are Gram-negative bacteria, Gram-positive bacteria, endophytic pathogenic fungus in tea tree and yeasts. Specific steps: coat the well-shaken indicator bacteria on the culture plate, stick filter paper on each scribe region, and drip surfactant on filter paper. The control group is the methanol solvent of same amount. After bacteria are inverted cultured in constant temperature incubation at 28° C. for a certain period (different indicator bacteria have different growth cycles; bacteria grow quickly, but endophytic fungus in tea tree should grow 3-5 days), and observe the results to detect inhibition zone. If there is an inhibition zone, its size should be measured.

Bacillus safensis = assay: Antibacterial activity, filter paper method; format: cell-based; details: 28° C.
Excerpt: as §1

Bacillus thuringiensis = assay: Antibacterial activity, filter paper method; format: cell-based; details: 28° C.
Excerpt: as §1

Rhodotorula mucilaginosa = assay: Antibacterial activity, filter paper method; format: cell-based; details: 28° C.
Excerpt: as §1

Bacillus plakortidis = assay: Antibacterial activity, filter paper method; format: cell-based; details: 28° C.
Excerpt: as §1

[3] = tested on: Ornithinibacillus bavariensis; assay: Antibacterial activity, filter paper method; format: cell-based; details: 28° C.
Excerpt: as §1

Phomaexigua var. exigua = assay: Antibacterial activity, filter paper method; format: cell-based; details: 28° C.
Excerpt: as §1

Bacillus rhizosphaerae = assay: Antibacterial activity, filter paper method; format: cell-based; details: 28° C.
Excerpt: as §1

[4] = tested on: Lysinibacillus sphaericus; assay: Antibacterial activity, filter paper method; format: cell-based; details: 28° C.
Excerpt: as §1

normal hepatocytes 7702 = assay: Cytotoxic activity test, Cell Counting Kit-8; format: cell-based; details: 100 ug/ml, 48 hours
Excerpt: (§2) Cytotoxic activity test method: measure cytotoxic activity using a Cell Counting Kit-8 (CCK-8 kit for short and of Dojindo Laboratories, Japan), namely, […]. The human CCK octapeptide ELISA is a quick high-sensitivity detection kit based on WST-8 and widely applied to cell proliferation and cytotoxic activity. WST-8 is a compound similar to the MTT. With the presence of electronic coupling reagent, WST-8 can be reduced by some dehydrogenases in mitochondria and produce orange formazan. The more and faster the cell proliferation is, the deeper the color; the greater the cytotoxicity is, the lighter the color. For the same cells, the color depth has a linear relationship with the number of cells. Solvent DMSO is used in control group, and pure lysine ester produced by strain Alcanivorax dieselolei T6-6 dissolved in DMSO are used in experimental group. Cells are hepatoma cells 7402 and normal hepatocytes 7702 (available from Sino-US Joint Venture Biohermes Biomedical Technology Ltd). Medicinal concentration is 100 ug/ml, and operation is taken according to kit instruction, with each step repeated three times. After medication, […] is detected in cellular fluid after culturing for 48 hours. Cell toxicity results are shown in Table 8: The medicine-to-cell suppression rate=[negative group (DMSO)−experimental group (dosed)]/negative group (DMSO). […] Accordingly, the active substances of lysine ester generated by the strain Alcanivorax dieselolei T6-6 have better cytotoxic activity.

hepatoma cells 7402 = assay: Cytotoxic activity test, Cell Counting Kit-8; format: cell-based; details: 100 ug/ml, 48 hours
Excerpt: as §2

[5] = Determination of biosurfactant MAD (Minimum Active Dose) by oil expansion experiment; format: physicochemical
Excerpt: Determination method of biosurfactant MAD (Minimum Active Dose) values: prepare different concentrations of water solution from pure biosurfactants to be determined, and measure the oil expansion activity through oil expansion experiment. With the decrease of concentration, the oil expansion ability of water solution becomes weaker and weaker, and completely disappears when the concentration decreases to a certain level. The amount of surfactant at the time of oil expansion ability disappearing is the MAD value.

[6] = Biosurfactant emulsifying property (emulsion stable value); format: physicochemical
Experimental: In order to understand the emulsifying activity of lysine ester produced by strain Alcanivorax dieselolei T6-6, we determined the emulsifying stability value of lysine ester produced by strain Alcanivorax dieselolei T6-6 and the chemical surfactants Tween 20 and Triton X-100 against olive oil, n-hexane, dimethylbenzene, hexadecane and petroleum ether. Determination method of biosurfactant emulsifying property: add 5 ml commercially available diesel No. 0 and 5 ml surfactant solution (1%) into a test tube, treat it with ultrasonic generator at 800 W for 40 s, and measure the emulsion and oil phase at different times (0 to 24 hours). Emulsion stable value (Es %)=emulsified layer height (cm)/oil phase height (cm)×100. […] Lysine ester produced by strains Alcanivorax dieselolei T6-6 has a good emulsifying activity (83±1%) on olive oil, and can maintain […] at room temperature. Its emulsifying activity on four other organics is also more than 75%. Good emulsifying activity makes it greatly valuable in environmental pollution control.

[7] = Determination of biosurfactant CMC values; format: physicochemical; details: for CMC: water solution
Excerpt: Determination method of biosurfactant CMC values: prepare different concentrations of water solution from pure biosurfactants to be determined, and measure its surface tension with surface tension meter. With the increase of surface activity (concentration), the surface tension of water solution gradually […]. The surface tension stops decreasing when the concentration increases to a certain level. The amount of surfactant corresponding to this critical surface tension is CMC value.

aeromonas hydrophila = assay: Antibacterial activity, filter paper method; format: cell-based; details: bacteriostasis experiment
Excerpt: as §1
(§3) DH5 alpha, aeromonas hydrophila and Campbell vibrio.

Campbell vibrio = assay: Antibacterial activity, filter paper method; format: cell-based; details: bacteriostasis experiment
Excerpt: as §1, §3

E. coli. DH5 alpha = assay: Antibacterial activity, filter paper method; format: cell-based; details: bacteriostasis experiment
Excerpt: as §1, §3

For CCCCCCCCCCCCCC1CC(=O)N1CCCCC(N)C(=O)O (centres unmarked) [2-amino-6-(2-oxo-4-tridecyl-azetidine-1-yl) hexanoic acid], the “surface tension of water after adding component” value ([1]; 300 ul unconcentrated surfactant added to 20 ml DDW, water alone 78.6) was 32.3, the “surface tension reduced to” value ([1]; summary statement) was 26-28 mN m-1 and the “pH of highest activity” value ([2]; oil expansion experiment, pH 2 to 10) was 8. For the same molecule, the oil expansion diameter ([2]; treated at 121° C. for 15 minutes) was “about 3.5 cm”, the Inhibition zone (Pestalotiopsistheae) was 10.19 mm and the Inhibition zone (Bacillus safensis) was 10.9 mm. For the same molecule, the Inhibition zone (Bacillus thuringiensis) was 7.2 mm, the Inhibition zone (Rhodotorula mucilaginosa) was 12.1 mm and the Inhibition zone (Bacillus plakortidis) was 13.7 mm. It also gave an Inhibition zone [3] of 14.2 mm, an Inhibition zone (Phomaexigua var. exigua) of 16.3 mm and an Inhibition zone (Bacillus rhizosphaerae) of 10.4 mm. For the same molecule, the Inhibition zone [4] was 11.7 mm, the medicine-to-cell suppression rate (normal hepatocytes 7702) was 67.32% and the “cell culture fluid OD600” value (normal hepatocytes 7702; DMSO control 0.863) was 0.282. The medicine-to-cell suppression rate (hepatoma cells 7402) was 92.74%, the “cell culture fluid OD600” value (hepatoma cells 7402; DMSO control 1.667) was 0.121 and the MAD [5] was 0.105 ± 0.05 µg. For the same molecule, the “emulsifying activity compared with Tween 20 and Triton X-100” value ([6]; FIG. 12) was “higher emulsifying activity”, the “emulsifying activity (emulsion stable value)” value ([6]; four other organics (n-hexane, dimethylbenzene, hexadecane, petroleum ether)) was “more than 75%” and the “emulsifying activity (emulsion stable value)” value ([6]; olive oil) was 83±1%. For the same molecule, the “time emulsion is maintained” value ([6]; olive oil, room temperature) was 48 h, the CMC value ([7]; summary statement) was 32 mg 1-1 and the CMC [7] was 32 mg/L. For the same molecule, the suppression effect (aeromonas hydrophila) was “no suppression effect”, the suppression effect (Campbell vibrio) was “no suppression effect” and the suppression effect (E. coli. DH5 alpha) was “no suppression effect”.
Work on CCCCCCCCCCCCOS(=O)(=O)[O-].[Na+] [SDS] yielded an MAD [5] of 6.0 ± 0.12 µg and a CMC [7] of 23 mg/L.
Work on CC(C)CCCCCCCCC[C@@H]1CC(=O)N[C@@H](CCC(=O)O)C(=O)N[C@@H](CC(C)C)C(=O)N[C@H](CC(C)C)C(=O)N[C@@H](C(C)C)C(=O)N[C@@H](CC(=O)O)C(=O)N[C@H](CC(C)C)C(=O)N[C@@H](CC(C)C)C(=O)O1 [Surfactin] (EL[dL]VD[dL]L; linker N-C via X1) yielded a CMC [7] of 45 mg/L.
In the case of Rhamnolipid, the CMC [7] is reported as 50 mg/L.
In the case of Triton X-100, the MAD [5] is reported as 0.3 ± 0.08 µg.
